Converted amounts (≈) assume the structure as drawn. Structures can show the parent of a compound that is named as a salt.
Tests used:
[1] = Measurement of the solubility of compounds in water (HPLC calibration curve); type: physicochemical; settings: supersaturated in 1 ml of water, centrifuged, supernatant by HPLC; for solubility thermodynamic: read-out: Solubility (mg/10 ml of water)
Description: That is, 1 mg of each of the above compounds was completely dissolved in 1 ml of DMSO, which was then subjected to HPLC employing C18 resin, and the peak area of chromatogram was calculated. And then, 1 mg of each of the same compound was dissolved in 10 ml of DMSO, which was then subjected to the same HPLC as the above to obtain a chromatogram, and the peak area was calculated therefrom. A solubility calibration curve was prepared by employing the above two data, and a linear function was deduced from that to complete a calibration curve (X axis: area, Y axis: logarithm value of concentration).
Each of the same compounds was supersaturated in 1 ml of water, which was then centrifuged at 14,000 rpm for 1 min. The precipitate was separated from the supernatant which was then subjected to the same HPLC as the above to obtain a chromatogram, and the peak area was calculated therefrom. The obtained value was substituted to the above calibration curve to measure the solubility by mg/10 ml of water (see: Table 1).

[2] = test system: A431 cancer cell; assay: Inhibition of cancer cell growth (sulforhodamine B); type: cell-based; settings: for GI50: Homo sapiens, A-431, 48 h; for GI50 / A431 GI50: A431 cells, grown 2 days with compound, SRB staining; for inhibitory effect of cancer cell growth compared with standard material DP153035: A431, comparison drawn from Table 3
Description: A431 cancer cell was cultivated at 37° C. under an environment of 5% (v/v) CO2 employing RPMI 1640 medium containing 10% (v/v) fetal calf serum. […] The above cells was grown again for 2 days, and then, fixed with formalin solution (Sigma Chem. Co., U.S.A.) and washed with water. After that, the cells was dried in the atmosphere, stained with 0.1% (v/v) sulforhodamine B solution (Sigma Chem. Co., U.S.A.) for 30 min and wash with 1% (v/v) acetic acid aqueous solution. Then, dye attached to cells was extracted with 0.1M Tris-HCl (pH 8.0) and the absorbances of the remaining culture were measured at 520 nm by the aid of microplate reader. And then, the concentration of the compound by which cell growth is 50% inhibited was represented as GI50(s: Table 3).

[3] = background statement; cited from earlier work
[4] = target: T1, purified human EGFR kinase (Homo sapiens, UniProt P00533); assay: Inhibition of EGFR tyrosine kinase (P32-ATP, biotin-conjugated substrate); type: biochemical; settings: for IC50: purified human EGFR kinase, 50 μM ATP, 30° C., 10 min
T1 construct: purchased Promega
T1 sequence (P00533 25-1210): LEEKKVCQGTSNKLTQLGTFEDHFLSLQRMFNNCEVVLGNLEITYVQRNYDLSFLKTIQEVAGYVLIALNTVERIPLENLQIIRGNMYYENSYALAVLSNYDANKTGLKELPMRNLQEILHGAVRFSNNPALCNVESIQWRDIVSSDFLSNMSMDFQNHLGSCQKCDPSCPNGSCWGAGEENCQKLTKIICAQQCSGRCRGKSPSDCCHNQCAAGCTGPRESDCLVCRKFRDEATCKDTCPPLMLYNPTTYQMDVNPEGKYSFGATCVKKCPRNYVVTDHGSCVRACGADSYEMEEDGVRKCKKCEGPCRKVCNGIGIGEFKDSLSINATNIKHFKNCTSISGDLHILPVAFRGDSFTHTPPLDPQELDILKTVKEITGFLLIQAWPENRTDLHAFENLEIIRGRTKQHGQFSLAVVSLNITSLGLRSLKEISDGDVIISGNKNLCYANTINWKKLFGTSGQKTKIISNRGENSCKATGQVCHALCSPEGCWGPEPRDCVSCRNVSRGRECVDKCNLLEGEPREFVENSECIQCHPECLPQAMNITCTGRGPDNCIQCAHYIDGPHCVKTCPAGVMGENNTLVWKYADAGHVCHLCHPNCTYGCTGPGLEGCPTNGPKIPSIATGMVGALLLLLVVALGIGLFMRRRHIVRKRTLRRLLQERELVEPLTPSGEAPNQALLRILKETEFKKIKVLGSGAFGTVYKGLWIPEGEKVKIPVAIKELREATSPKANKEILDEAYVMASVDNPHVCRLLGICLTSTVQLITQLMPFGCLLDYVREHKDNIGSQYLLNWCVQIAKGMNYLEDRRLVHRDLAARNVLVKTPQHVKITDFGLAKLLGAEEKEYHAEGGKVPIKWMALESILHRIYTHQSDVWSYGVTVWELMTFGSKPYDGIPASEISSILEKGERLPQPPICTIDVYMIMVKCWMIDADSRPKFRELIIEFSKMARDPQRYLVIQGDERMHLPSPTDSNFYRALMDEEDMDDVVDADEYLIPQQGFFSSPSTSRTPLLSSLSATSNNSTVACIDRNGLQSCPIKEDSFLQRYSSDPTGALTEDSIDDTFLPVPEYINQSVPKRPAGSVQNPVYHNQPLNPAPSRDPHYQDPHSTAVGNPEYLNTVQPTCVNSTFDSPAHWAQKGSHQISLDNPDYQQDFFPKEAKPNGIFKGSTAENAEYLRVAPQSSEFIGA
Description: The test was accomplished in a 20 μl reaction volume using 0.1 unit per reaction of purified human EGFR kinase (Promega, U.S.A.) and 50 μM biotin-conjugated substrate for tyrosine kinase (Promega, U.S.A.) and, 50 μM P^32-γ-ATP (0.2 μCi) and 20 mM Tris-HCl (pH 7.5) were employed as an ATP and a reaction solution, respectively. The test was carried out at 30° C. for 10 min, and terminated by the addition of 10 μl of 30% phosphate solution. The half of the reaction product was spotted onto avidin-layered PVDF membrane, which was then washed with 20 mM Tris-HCl (pH 8.0) and 0.2N NaCl aqueous solution for more than 2 hours.

GI50 [2] [µg/mL]	IC50 [4] [nM]	Compound	inhibitory effect of cancer cell growth compared with standard material DP153035 [2]	further results
0.99 (≈ 2.75 µM)	–	COc1cc2ncnc(Nc3cccc(Br)c3)c2cc1OC [DP153035, reference compound]	–	solubility thermodynamic [1]: 20 µg/mL (≈ 55.5 µM); solubility in water (in words) [3]: insolubility in water
0.24 (≈ 0.597 µM)	35.5	COCC1COc2cc3ncnc(Nc4cccc(Br)c4)c3cc2O1 (centres unmarked) [Example 10, (3-bromophenyl)-(7-methoxymethyl-[1,4]-dioxano[2,3-g]quinazolin-4-yl)-amine]	better inhibitory effect of cancer cell growth than the standard material	solubility thermodynamic [1]: 241 µg/mL (≈ 599 µM)
0.43 (≈ 1.1 µM)	> 256	COCC1COc2cc3ncnc(Nc4cccc(C(F)(F)F)c4)c3cc2O1 (centres unmarked) [Example 12, (3-trifluoromethylphenyl)-(7-methoxymethyl-[1,4]-dioxano[2,3-g]quinazolin-4-yl)-amine]	better inhibitory effect of cancer cell growth than the standard material	solubility thermodynamic [1]: 74 µg/mL (≈ 189 µM)
0.21 (≈ 0.535 µM)	34.7	COCC1COc2cc3ncnc(Nc4cc(Cl)cc(Cl)c4)c3cc2O1 (centres unmarked) [Example 13, (3,5-dichlorophenyl)-(7-methoxymethyl-[1,4]-dioxano[2,3-g]quinazolin-4-yl)-amine]	better inhibitory effect of cancer cell growth than the standard material	solubility thermodynamic [1]: 8 µg/mL (≈ 20.4 µM)
0.06 (≈ 0.171 µM)	> 285	COCC1COc2cc3ncnc(Nc4cc(C)cc(C)c4)c3cc2O1 (centres unmarked) [Example 15, (3,5-dimethylphenyl)-(7-methoxymethyl-[1,4]-dioxano[2,3-g]quinazolin-4-yl)-amine]	better inhibitory effect of cancer cell growth than the standard material	–
–	–	COCC1COc2cc3ncnc(Nc4ccc(C)c(Cl)c4)c3cc2O1 (centres unmarked) [Example 16, (3-chloro-4-methylphenyl)-(7-methoxymethyl-[1,4]-dioxano[2,3-g]quinazolin-4-yl)-amine]	–	solubility thermodynamic [1]: 457 µg/mL (≈ 1230 µM)
0.6 (≈ 1.6 µM)	97.7	COCC1COc2cc3ncnc(Nc4ccc(F)c(Cl)c4)c3cc2O1 (centres unmarked) [Example 17, (3-chloro-4-fluorophenyl)-(7-methoxymethyl-[1,4]-dioxano[2,3-g]quinazolin-4-yl)-amine]	better inhibitory effect of cancer cell growth than the standard material	–
1.98 (≈ 5.25 µM)	4.19	COCC1COc2cc3ncnc(Nc4cc(F)c(F)c(F)c4)c3cc2O1 (centres unmarked) [Example 18, (3,4,5-trifluorophenyl)-(7-methoxymethyl-[1,4]-ioxano[2,3-g]quinazolin-4-yl)-amine]	–	solubility thermodynamic [1]: 45 µg/mL (≈ 119 µM); inhibitory effect on EGFR tyrosine kinase compared with standard material DP153035 ([4]; comparison drawn from Table 2): higher inhibitory effect than the standard material
0.38 (≈ 0.753 µM)	25.1	Ic1cccc(Nc2ncnc3cc4c(cc23)OC(CN2CCOCC2)CO4)c1 (centres unmarked) [Example 22, (3-iodophenyl)-[7-(morpholine-4-ylmethyl)-[1,4]dioxano[2,3-g]quinazolin-4-yl]-amine]	better inhibitory effect of cancer cell growth than the standard material	–
0.13 (≈ 0.284 µM)	63.1	Brc1cccc(Nc2ncnc3cc4c(cc23)OC(CN2CCOCC2)CO4)c1 (centres unmarked) [Example 23, (3-bromophenyl)-[7-(morpholine-4-ylmethyl)-[1,4]dioxano[2,3-g]quinazolin-4-yl]-amine]	–	–
0.61 (≈ 1.28 µM)	100	OCCN(CCO)CC1COc2cc3ncnc(Nc4cccc(Br)c4)c3cc2O1 (centres unmarked) [Example 25]	–	–
–	28.2	OCCNCC1COc2cc3ncnc(Nc4cccc(Br)c4)c3cc2O1 (centres unmarked) [Example 27, 2-[4-(3-bromophenylamine)-[1,4]dioxano[2,3-g]quinazolin-7-ylmethyl]amino-ethanol]	–	A431 GI50 [2]: 0.22 µg/mL
0.22 (≈ 0.468 µM)	8.91	CN1CCN(CC2COc3cc4ncnc(Nc5cccc(Br)c5)c4cc3O2)CC1 (centres unmarked) [Example 28, (3-bromophenyl)-[7-(4-methylpiperazin-1-yl)methyl-[1,4]dioxano[2,3-g]quinazolin-4-yl]amine]	better inhibitory effect of cancer cell growth than the standard material	–
1.9 (≈ 4.01 µM)	> 211	CC(C)[C@H](CO)NCC1COc2cc3ncnc(Nc4cccc(Br)c4)c3cc2O1 (some centres unmarked) [Example 29]	–	–
–	–	Cl.Ic1cccc(Nc2ncnc3cc4c(cc23)OCC(CN2CCOCC2)O4)c1 (centres unmarked) [Example 30]	–	Solubility (mg/10 ml of water) [1]: >>1,000 mg/10 ml of water
–	101	Brc1cccc(Nc2ncnc3cc4c(cc23)OC(CN2CCOCC2)CO4)c1 (centres unmarked) [Example 31, (3-bromophenyl)-[7-(morpholin-4-ylmethyl)-[1,4]dioxano[2,3-g]quinazolin-4-yl]amine hydrochloride]	better inhibitory effect of cancer cell growth than the standard material	Solubility (mg/10 ml of water) [1]: >>1,000 mg/10 ml of water; A431 GI50 ([2]; hydrochloride): 0.19 µg/mL
–	44.9	OCCN(CCO)CC1COc2cc3ncnc(Nc4cccc(Br)c4)c3cc2O1 (centres unmarked) [Example 33, N-[4-(3-bromophenylamine)-[1,4]dioxano[2,3-g]quinazolin-7-ylmethyl]-N-(2-hydroxyethyl)]-2-ethanolamine hydrochloride]	better inhibitory effect of cancer cell growth than the standard material	Solubility (mg/10 ml of water) [1]: >>1,000 mg/10 ml of water; A431 GI50 ([2]; hydrochloride): 0.67 µg/mL
–	–	Cl.OCCNCC1COc2cc3ncnc(Nc4cccc(I)c4)c3cc2O1 (centres unmarked) [Example 34, 2-[4-(3-iodophenylamine)-[1,4]dioxano[2,3-g]quinazolin-7-ylmethyl]amino ethanol hydrochloride]	–	Solubility (mg/10 ml of water) [1]: >>1,000 mg/10 ml of water
–	49.9	OCCNCC1COc2cc3ncnc(Nc4cccc(Br)c4)c3cc2O1 (centres unmarked) [Example 35, 2-[4-(3-bromophenylamine)-[1,4]dioxano[2,3-g]quinazolin-7-ylmethyl]amino ethanol hydrochloride]	better inhibitory effect of cancer cell growth than the standard material	Solubility (mg/10 ml of water) [1]: >>1,000 mg/10 ml of water; A431 GI50 ([2]; hydrochloride): 0.95 µg/mL
–	–	CN1CCN(CC2COc3cc4ncnc(Nc5cccc(I)c5)c4cc3O2)CC1.Cl (centres unmarked) [Example 36, (3-iodophenyl)-[7-(4-methylpiperazin-1-yl)methyl-[1,4]dioxano[2,3-g]quinazolin-4-yl]amine hydrochloride]	–	Solubility (mg/10 ml of water) [1]: >>1,000 mg/10 ml of water
–	123	CN1CCN(CC2COc3cc4ncnc(Nc5cccc(Br)c5)c4cc3O2)CC1 (centres unmarked) [Example 37, (3-bromophenyl)-[7-(4-methylpiperazin-1-yl)methyl-[1,4]dioxano[2,3-g]quinazolin-4-yl]amine hydrochloride]	–	A431 GI50 ([2]; hydrochloride): 0.38 µg/mL
2.91 (≈ 6.52 µM)	74.1	COC[C@H]1Oc2cc3ncnc(Nc4cccc(Br)c4)c3cc2O[C@@H]1COC [Example 44, (7,8-bismethoxymethyl[1,4]dioxano[2,3-g]quinazolin-4-yl)-(3-bromophenyl)-amine]	–	–
1.59 (≈ 3.22 µM)	–	COC[C@H]1Oc2cc3ncnc(Nc4cccc(I)c4)c3cc2O[C@@H]1COC [Example 45, (7,8-bismethoxymethyl[1,4]dioxano[2,3-g]quinazolin-4-yl)-(3-iodophenyl)amine]	–	–
2.37 (≈ 5.9 µM)	> 249	COC[C@H]1Oc2cc3ncnc(Nc4cccc(Cl)c4)c3cc2O[C@@H]1COC [Example 46, (7,8-bismethoxymethyl[1,4]dioxano[2,3-g]quinazolin-4-yl)-(3-chlorophenyl)-amine]	–	–
1.89 (≈ 4.83 µM)	> 255	C#Cc1cccc(Nc2ncnc3cc4c(cc23)O[C@H](COC)[C@@H](COC)O4)c1 [Example 48, (7,8-bismethoxymethyl[1,4]dioxano[2,3-g]quinazolin-4-yl)-[3-(ethynyl)phenyl]-amine]	–	–
–	–	COc1cc2ncnc(Nc3ccc(F)c(Cl)c3)c2cc1OCCCN1CCOCC1 [ZD 1839]	–	solubility in water (in words) [3]: does not have a high solubility

Reference: patent publication US6835735B2, “4-(phenylamino)-[1,4]dioxano[2,3-g]quinazoline derivatives and process for preparing the same” (Korea Institute of Science and Technology, priority 2001, dated 2004)
